Results taken from patent US8735429B2, “Benzamide compounds useful as histone deacetylase inhibitors” (AstraZeneca AB, priority 2005, dated 2014).

Key:
recombinant human HDAC1 = target: T1, recombinant human HDAC1 (Homo sapiens, UniProt Q13547); test: In vitro enzyme assay of recombinant HDAC1 (Test (a)); assay type: biochemical; conditions: recombinant human HDAC1, acetylated histone H4 peptide substrate; read-out: IC50 Test (a) (In vitro assay for the inhibition of HDAC1)
T1 construct: FLAG (C); made in house; host or cells: Hi5 insect cells
Protocol: (a) In Vitro Enzyme Assay of Recombinant HDAC1
HDAC inhibitors were screened against recombinant human HDAC1 produced in Hi5 insect cells. The enzyme was cloned with a FLAG tag at the C-terminal of the gene and affinity purified using Anti-FLAG M2 agarose from SIGMA (A2220).
The deacetylase assays were carried out in a 50 μl reaction. HDAC1 (75 ng of enzyme) diluted in 15 μl of reaction buffer (25 mM TrisHCl (pH 8), 137 mM NaCl, 2.7 mM KCl, 1 mM MgCl2) was mixed with either buffer alone (10 μl) or buffer containing compound (10 μl) for 30 minutes at ambient temperature. 25 μM acetylated histone H4 peptide (KI 174 Biomol) diluted in 25 μl of buffer was then added to the reaction and incubated for one hour at ambient temperature. The reaction was stopped by addition of an equal volume (50 μl) of Fluor de Lys developer (Biomol) containing Trichostatin A at 2 μM. The reaction was allowed to develop for 30 minutes at ambient temperature and then fluorescence measured at an excitation wavelength of 360 nm and an emission wavelength of 465 nm. IC50 values for HDAC enzyme inhibitors were determined by performing dose response curves with individual compounds and determining the concentration of inhibitor producing fifty percent decrease in the maximal signal (diluent control).

HCT116 cells = test: In vitro assay of inhibition of proliferation in whole cells (Test (b)); assay type: cell-based; conditions: Homo sapiens, HCT-116, 72 hours, MTS, read-out: IC50 Test (b) (In vitro assay for the inhibition of whole cell proliferation)
Protocol: (b) In Vitro Assay of Inhibition of Proliferation in Whole Cells
Inhibition of proliferation in whole cells was assayed using the Promega cell titer 96 aqueous proliferation assay (Promega #G5421). HCT116 cells were seeded in 96 well plates at 1×10^3 cells/well, and allowed to adhere overnight. They were treated with inhibitors for 72 hours. 20 μl of the tetrazolium dye MTS was added to each well and the plates were re-incubated for 3 hours. Absorbance was then measured on a 96 well plate reader at […]. The IC50 values for HDAC inhibitors were determined by performing dose response curves with individual compounds and determining the concentration of inhibitor producing fifty percent decrease in the maximal signal (diluent control).

T1 sequence (Q13547 whole entry): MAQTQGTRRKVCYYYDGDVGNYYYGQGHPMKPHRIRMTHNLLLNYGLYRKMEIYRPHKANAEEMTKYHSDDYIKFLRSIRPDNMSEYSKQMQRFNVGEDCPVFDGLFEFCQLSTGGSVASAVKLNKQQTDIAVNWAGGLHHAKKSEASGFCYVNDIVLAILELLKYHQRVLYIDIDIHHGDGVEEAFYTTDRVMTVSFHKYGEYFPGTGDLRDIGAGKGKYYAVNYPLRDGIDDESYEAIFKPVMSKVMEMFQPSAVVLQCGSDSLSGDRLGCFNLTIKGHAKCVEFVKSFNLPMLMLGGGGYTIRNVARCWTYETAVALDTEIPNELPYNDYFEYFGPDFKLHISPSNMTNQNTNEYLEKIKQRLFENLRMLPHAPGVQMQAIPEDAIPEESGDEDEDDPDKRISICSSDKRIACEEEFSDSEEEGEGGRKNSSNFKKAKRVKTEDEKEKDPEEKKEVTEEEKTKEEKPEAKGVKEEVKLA

| Compound | IC50 (recombinant human HDAC1) | IC50 (HCT116 cells) |
| --- | --- | --- |
| COc1c(CN2CCC(c3ccc(C(=O)Nc4ccccc4N)cc3)CC2)c(C)nn1C [Example 4, N-(2-Aminophenyl)-4-{1-[(5-methoxy-1,3-dimethyl-1H-pyrazol-4-yl)methyl]piperidin-4-yl}benzamide] | 81 nM | 508 nM |
| Nc1ccccc1NC(=O)c1ccc(C2CCN(Cc3ccccn3)CC2)cc1 [Comparative Compound 1, N-(2-aminophenyl)-4-[1-(pyrid-2-ylmethyl)piperidin-4-yl]benzamide] | 100 nM | 1430 nM |
